Columns and labels:
Assay type in all cases: cell-based
[1] = system: normal bone marrow cells (BFU-E); experiment: Effect upon normal bone marrow differentiation in culture (CFU-GEMM assay, BFU-E colonies); conditions: Bone marrow cell, 336 h, BFU-E colonies evaluated at 14 days, read-out: NBM (BFU-E) IC50
Description: The CFU-GEMM assay was performed according to Fauser and Messner (1978, Blood, 52(6) 143-8) and Messner and Fausser (1980, Blut, 41(5) 327-33) with some variations. In brief, heparinized bone marrow cells were layered over Percoll (1.077 gm/ml) (Pharmacia Fine Chemical, Piscataway N.J.) and centrifuged at 400 g at 4° C. for 10 minutes to remove neutrophils and RBCs. The fractionated BM cells at 2×10^5 cells/ml were cultured in IMDM (OCI, Toronto) containing 0.9% (vol/vol) methylcellulose supplemented with 30% FCS (Cansera Rexdale, ON.) or normal human plasma, a cocktail of cytokines containing G-CSF (10 ng/ml, Amgen), IL-3 (40 U/ml, Immunex), MGF (50 ng/ml, Immunex), Erythropoietin (2 u/ml, Epprex) or TPO (10 ng/ml, Amgen), 5×10^−5 M β-2-mercaptoethanol and the specified concentration of CR4. The culture mixture was plated in 1 ml volumes into 35 mm petri dishes and incubated at 37° C., 5% CO2 in a humidified atmosphere. All cultures were evaluated at 14 days for the number of BFU-E colonies (defined as aggregates of more than 500 hemoglobinized cells or, 3 or more erythroid subcolonies), OFU-GM colonies (defined as granulocyte or monocyte-macrophage cells or both), CFU-Meg colonies (comprising 4 or more megakaryocytes) and CFU-GEMM colonies (a mixed population comprising of all elements).

OCI-AML-3 cells = experiment: Killing of AML-3 acute myeloid leukemia cells in culture (colony assay); conditions: Homo sapiens, methylcellulose colony count at 5-6 days
Description: OCI-AML-3 cells were plated in 35 mm petri dishes (Nunc, Gibco) in 1 ml volumes at a density of 3.3×10^3 cells/ml, in the absence of exogenous growth factors, containing alpha MEM plus 30% FCS (Cansera, Rexdale Ont.), and 0.9% (vol/vol) methylcellulose (Fluka, Switzerland) and the indicated concentrations of for various test compounds described above. Cell cultures were incubated in a humidified atmosphere at 37° C. with 5% CO2. Colonies containing more than 20 cells were scored, using an inverted microscope, at 5-6 days.

Z119 cells = experiment: Killing of Philadelphia positive Z119 acute lymphoblastic leukemia cells in culture (colony assay); conditions: Z119 Philadelphia positive ALL cells, methylcellulose colony count at 7-9 days; read-out: ALL (Z 119) IC50
Description: Z119 cells were plated in 1 ml volumes at a density of 5×10^4 cells/ml, in the absence of exogenous growth factors, into 35 mm petri dishes (Nunc, Gibco) containing IMDM (OCI, Toronto) plus 20% FCS (Cansera Rexdale, ON.) in 0.9% (vol/vol) methylcellulose (Fluka, Switzerland) with the indicated concentration of for various test compounds described above. Cultures were set at 37° C., 5% CO2 in a humidified atmosphere. Colonies consisting of more than 20 cells were counted at 7-9 days using an inverted microscope.

C1 cells = experiment: Killing of Philadelphia negative C1 acute lymphoblastic leukemia cells in culture (colony assay); conditions: C1 Philadelphia negative ALL cells, methylcellulose colony count in 5-7 days
Description: C1 (at 2×10^4 cells/ml) were plated in 1 ml volumes, in the absence of exogenous growth factors, into 35 mm Petri dishes (Nunc, Gibco) containing alpha MEM (Gibco) plus 10% FCS (Cansera Rexdale, Ont.) in 0.9% (vol/vol) methylcellulose (Fluka, Switzerland). Cultures were set up at 37° C. with 5% CO2 in a humidified atmosphere. Colonies consisting of more than 20 cells were counted in 5-7 days using an inverted microscope. For further information, see Leukemia, Vol. 6, No. 1, 1992, pg. 8-17 and Nature, Vol. 379, 15 Feb. 1996.

With N#C/C(=C\C=C\c1ccco1)C(=O)NCc1ccc(O)c(O)c1 [CRH-48, 2-cyano-5-furan-2-yl-penta-2E,4E-dienoic acid 3,4-dihydroxybenzylamide] the IC50 [1] was ≤ 10000 nM, the IC50 (OCI-AML-3 cells) was 230 nM and the IC50 (Z119 cells) was 250 to 500 nM. The IC50 (C1 cells) was ≥ 250 nM.

N#C/C(=C\c1ccc(/C=C/c2ccccc2)cc1)C(=O)NCc1ccncc1 [CRS-75, 2-cyano-N-pyridin-4-ylmethyl-3-(4-trans-styrylphenyl)-E-acrylamide] was tested, and the IC50 [1] was > 10000 nM, the IC50 (OCI-AML-3 cells) was ≥ 500 nM and the IC50 (Z119 cells) was > 1000 nM. The IC50 (C1 cells) was ≥ 500 nM.

With N#C/C(=C\C=C\c1cccs1)C(=O)NCc1ccc(O)c(O)c1 [CRH-60, 2-cyano-5-thiophen-2-yl-penta-2E,4E-dienoic acid 3,4-dihydroxybenzylamide] the IC50 [1] was 7100 nM and the IC50 (Z119 cells) was < 500 nM.

For N#C/C(=C\c1ccc(/C=C/c2ccncc2)cc1)C(=O)NCc1ccc(O)c(O)c1 [CRS-76, 2-cyano-N-(3,4-dihydroxybenzyl)-3-[4-(2-pyridin-4-yl-trans-vinyl)-phenyl]-E-acrylamide], the IC50 [1] was > 10000 nM and the IC50 (Z119 cells) was > 1000 nM.

In the case of N#C/C(=C\C=C\c1cc(O)ccc1O)C(=O)NCc1ccccc1 [CRO-70, 2-Cyano-5-(2,5-dihydroxyphenyl)penta-2E,4E-dienoic acid benzylamide], the IC50 [1] is reported as 6900 nM, the IC50 (OCI-AML-3 cells) is reported as > 500 nM and the IC50 (Z119 cells) is reported as 260 nM. For the same compound, the IC50 (C1 cells) was > 500 nM.

For N#C\C(=C/C=C/C=C/c1ccc(O)c(O)c1)C(=O)NCc1ccccc1 [CRT-88, 2-Cyano-7-(3,4-dihydroxyphenyl)hepta-2E,4E,6E-trienoic acid benzyl-amide], the IC50 [1] was 3100 to 5400 nM and the IC50 (Z119 cells) was < 500 nM.

With N#C/C(=C\c1ccc(/C=C/c2ccncc2)cc1)C(=O)NCc1ccncc1 [CRS-77, 2-cyano-N-pyridin-4-ylmethyl-3-[4-(2-pyridin-4-yl-trans-vinyl)phenyl]-E-acrylamide] the IC50 [1] was > 10000 nM and the IC50 (Z119 cells) was > 1000 nM.

In the case of N#C/C(=C\C=C\c1cccnc1)C(=O)NCc1ccccc1 [CRH-59, 2-cyano-5-pyridin-3-yl-penta-2E,4E-dienoic acid benzylamide], the IC50 [1] is reported as > 10000 nM and the IC50 (Z119 cells) is reported as > 1000 nM.

COc1cc(/C=C/C=C/C=C(\C#N)C(=O)NCc2ccc(O)c(O)c2)ccc1O [CRT-67, 2-cyano-7-(4-hydroxy-3-methoxyphenyl)hepta-2E,4E,6E-trienoic acid 3,4-dihydroxybenzylamide] was tested, and the IC50 [1] was 10200 nM, the IC50 (OCI-AML-3 cells) was > 500 nM and the IC50 (Z119 cells) was ≤ 500 nM. The IC50 (C1 cells) was > 500 nM.

In the case of N#C/C(=C\C=C\c1cccnc1)C(=O)NCc1ccc(O)c(O)c1 [CRH-58, 2-cyano-5-pyridin-3-yl-penta-2E,4E-dienoic acid 3,4-dihydroxybenzylamide], the IC50 [1] is reported as 7500 to 9800 nM, the IC50 (OCI-AML-3 cells) is reported as > 500 nM and the IC50 (Z119 cells) is reported as 260 nM. For the same compound, the IC50 (C1 cells) was > 500 nM.

N#C/C(=C\C(Cl)=C\c1ccccc1)C(=O)NCc1ccc(O)c(O)c1 [CRC-47, 4-chloro-2-cyano-5-phenyl-penta-2E,4Z-dienoic acid 3,4-dihydroxybenzylamide] was tested, and the IC50 [1] was < 5000 nM and the IC50 (Z119 cells) was < 125 nM.

— US7807719B2, “Compounds useful for modulating abnormal cell proliferation” (priority 2004, dated 2010)
